Data on three compounds can be found in ChEMBL document CHEMBL3784917, “Recent Progress in Histone Demethylase Inhibitors” (J Med Chem, 2016).

For test [1], the target named is T1, Lysine-specific demethylase 5C (Homo sapiens, UniProt P41229).
For test [2], the target named is T2, Lysine-specific demethylase 2A (Homo sapiens, UniProt Q9Y2K7).
T2 sequence (Q9Y2K7 whole entry): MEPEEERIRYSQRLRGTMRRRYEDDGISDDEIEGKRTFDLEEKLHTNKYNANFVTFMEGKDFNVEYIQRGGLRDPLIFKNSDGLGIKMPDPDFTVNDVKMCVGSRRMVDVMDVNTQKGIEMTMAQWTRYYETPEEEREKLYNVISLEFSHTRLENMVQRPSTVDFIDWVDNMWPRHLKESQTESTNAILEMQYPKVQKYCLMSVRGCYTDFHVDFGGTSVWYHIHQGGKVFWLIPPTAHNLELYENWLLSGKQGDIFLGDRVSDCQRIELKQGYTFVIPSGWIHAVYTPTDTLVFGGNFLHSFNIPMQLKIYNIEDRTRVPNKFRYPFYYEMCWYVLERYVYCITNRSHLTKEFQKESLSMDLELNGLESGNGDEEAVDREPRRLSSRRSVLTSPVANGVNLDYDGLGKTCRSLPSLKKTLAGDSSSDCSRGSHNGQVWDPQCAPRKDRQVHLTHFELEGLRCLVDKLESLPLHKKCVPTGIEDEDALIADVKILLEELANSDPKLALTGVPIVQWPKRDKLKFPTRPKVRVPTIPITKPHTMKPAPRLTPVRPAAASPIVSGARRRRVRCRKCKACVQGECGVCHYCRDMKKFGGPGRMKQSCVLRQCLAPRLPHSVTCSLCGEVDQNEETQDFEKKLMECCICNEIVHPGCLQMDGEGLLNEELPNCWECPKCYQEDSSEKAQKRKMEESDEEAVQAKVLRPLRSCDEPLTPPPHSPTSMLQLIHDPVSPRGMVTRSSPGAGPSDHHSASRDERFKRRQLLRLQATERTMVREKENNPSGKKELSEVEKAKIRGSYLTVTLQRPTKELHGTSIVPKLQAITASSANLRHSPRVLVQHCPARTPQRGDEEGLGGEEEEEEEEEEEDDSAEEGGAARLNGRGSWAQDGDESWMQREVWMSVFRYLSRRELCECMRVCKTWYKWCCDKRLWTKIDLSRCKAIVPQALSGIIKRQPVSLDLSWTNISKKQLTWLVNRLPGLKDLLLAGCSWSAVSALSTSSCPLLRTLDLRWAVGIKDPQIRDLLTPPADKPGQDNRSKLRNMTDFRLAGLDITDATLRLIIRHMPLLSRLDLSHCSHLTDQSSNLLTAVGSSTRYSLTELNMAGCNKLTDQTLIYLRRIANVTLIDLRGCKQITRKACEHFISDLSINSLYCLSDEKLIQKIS
The experiment in a line: Inhibition of KDM2A (unknown origin) after 24 hrs by alphascreen assay.

Test [3] addresses T1, Lysine-specific demethylase 5C. The experiment in a line: Inhibition of KDM5C (unknown origin) after 24 hrs by alphascreen assay. (Bead proximity is the source of the signal in Alpha formats.)
Test [4] has as its target Egl nine homolog 1 (Homo sapiens, UniProt Q9GZT9). Kind of test: Inhibition of PHD2 catalytic domain (unknown origin) after 24 hrs by alphascreen assay.
Test [5] deals with T3, Lysine-specific demethylase 4A (Homo sapiens, UniProt O75164).
T3 sequence (O75164 whole entry): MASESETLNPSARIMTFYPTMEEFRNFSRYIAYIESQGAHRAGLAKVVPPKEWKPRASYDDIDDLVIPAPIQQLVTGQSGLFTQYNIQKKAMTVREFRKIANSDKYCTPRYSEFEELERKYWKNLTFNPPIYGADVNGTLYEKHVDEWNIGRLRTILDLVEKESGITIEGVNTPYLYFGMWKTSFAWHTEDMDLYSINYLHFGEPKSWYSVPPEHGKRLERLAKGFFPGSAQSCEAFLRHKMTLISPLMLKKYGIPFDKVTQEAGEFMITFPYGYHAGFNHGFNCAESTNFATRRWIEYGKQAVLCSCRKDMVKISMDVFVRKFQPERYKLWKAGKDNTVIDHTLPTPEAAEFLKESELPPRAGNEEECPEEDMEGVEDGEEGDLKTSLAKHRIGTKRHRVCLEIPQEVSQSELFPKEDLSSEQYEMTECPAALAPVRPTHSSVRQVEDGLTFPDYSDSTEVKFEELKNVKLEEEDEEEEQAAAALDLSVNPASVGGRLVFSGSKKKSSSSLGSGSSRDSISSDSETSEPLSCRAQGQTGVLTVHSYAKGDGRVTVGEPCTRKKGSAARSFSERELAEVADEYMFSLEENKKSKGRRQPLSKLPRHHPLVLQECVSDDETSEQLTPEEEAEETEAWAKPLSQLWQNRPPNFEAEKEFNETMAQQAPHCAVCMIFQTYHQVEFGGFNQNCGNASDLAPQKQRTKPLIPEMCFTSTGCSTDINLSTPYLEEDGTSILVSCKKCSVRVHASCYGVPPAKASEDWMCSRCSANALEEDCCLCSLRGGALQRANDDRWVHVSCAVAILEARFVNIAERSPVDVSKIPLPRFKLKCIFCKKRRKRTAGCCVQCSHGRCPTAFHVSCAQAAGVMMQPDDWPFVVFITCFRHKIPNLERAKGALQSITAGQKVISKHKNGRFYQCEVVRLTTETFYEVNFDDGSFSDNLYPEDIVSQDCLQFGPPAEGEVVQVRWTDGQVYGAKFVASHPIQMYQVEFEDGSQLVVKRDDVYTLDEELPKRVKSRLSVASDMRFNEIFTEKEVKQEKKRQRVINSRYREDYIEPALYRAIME

For test [6], the target named is T1, Lysine-specific demethylase 5C. The experiment in a line: Inhibition of KDM5C (unknown origin) preincubated for 15 mins followed by histone substrate addition measured after 1 hr by alphascreen assay.
Test [7] has as its target Lysine-specific demethylase 6B (Homo sapiens, UniProt O15054). Kind of test: Inhibition of KDM6B (unknown origin) preincubated for 15 mins followed by histone substrate addition measured after 1 hr by alphascreen assay.
The nature of test [8]: Inhibition of FIH (unknown origin) using ankyrin peptide substrate preincubated for 5 mins followed by substrate addition measured after 5 mins MALDI-TOF mass spectrometric analysis. Set-up: species or system Homo sapiens.
The target of test [9] is T3, Lysine-specific demethylase 4A. The experiment in a line: Inhibition of full-length FLAG-tagged KDM4A (unknown origin) expressed in human HeLa cells assessed as increase in H3K9me3 level after 24 hrs by DAPI staining based immunofuorescence assay. It is filed as cell-based.
Test [10] has the same target. The experiment in a line: Inhibition of KDM4A in human MCF7 cells assessed as increase in H3K9me3 level after 24 hrs by DAPI staining based immunofuorescence assay. It is filed as cell-based.

pEC50, pIC50: −log10 of the molar value.

T1 sequence (P41229 whole entry): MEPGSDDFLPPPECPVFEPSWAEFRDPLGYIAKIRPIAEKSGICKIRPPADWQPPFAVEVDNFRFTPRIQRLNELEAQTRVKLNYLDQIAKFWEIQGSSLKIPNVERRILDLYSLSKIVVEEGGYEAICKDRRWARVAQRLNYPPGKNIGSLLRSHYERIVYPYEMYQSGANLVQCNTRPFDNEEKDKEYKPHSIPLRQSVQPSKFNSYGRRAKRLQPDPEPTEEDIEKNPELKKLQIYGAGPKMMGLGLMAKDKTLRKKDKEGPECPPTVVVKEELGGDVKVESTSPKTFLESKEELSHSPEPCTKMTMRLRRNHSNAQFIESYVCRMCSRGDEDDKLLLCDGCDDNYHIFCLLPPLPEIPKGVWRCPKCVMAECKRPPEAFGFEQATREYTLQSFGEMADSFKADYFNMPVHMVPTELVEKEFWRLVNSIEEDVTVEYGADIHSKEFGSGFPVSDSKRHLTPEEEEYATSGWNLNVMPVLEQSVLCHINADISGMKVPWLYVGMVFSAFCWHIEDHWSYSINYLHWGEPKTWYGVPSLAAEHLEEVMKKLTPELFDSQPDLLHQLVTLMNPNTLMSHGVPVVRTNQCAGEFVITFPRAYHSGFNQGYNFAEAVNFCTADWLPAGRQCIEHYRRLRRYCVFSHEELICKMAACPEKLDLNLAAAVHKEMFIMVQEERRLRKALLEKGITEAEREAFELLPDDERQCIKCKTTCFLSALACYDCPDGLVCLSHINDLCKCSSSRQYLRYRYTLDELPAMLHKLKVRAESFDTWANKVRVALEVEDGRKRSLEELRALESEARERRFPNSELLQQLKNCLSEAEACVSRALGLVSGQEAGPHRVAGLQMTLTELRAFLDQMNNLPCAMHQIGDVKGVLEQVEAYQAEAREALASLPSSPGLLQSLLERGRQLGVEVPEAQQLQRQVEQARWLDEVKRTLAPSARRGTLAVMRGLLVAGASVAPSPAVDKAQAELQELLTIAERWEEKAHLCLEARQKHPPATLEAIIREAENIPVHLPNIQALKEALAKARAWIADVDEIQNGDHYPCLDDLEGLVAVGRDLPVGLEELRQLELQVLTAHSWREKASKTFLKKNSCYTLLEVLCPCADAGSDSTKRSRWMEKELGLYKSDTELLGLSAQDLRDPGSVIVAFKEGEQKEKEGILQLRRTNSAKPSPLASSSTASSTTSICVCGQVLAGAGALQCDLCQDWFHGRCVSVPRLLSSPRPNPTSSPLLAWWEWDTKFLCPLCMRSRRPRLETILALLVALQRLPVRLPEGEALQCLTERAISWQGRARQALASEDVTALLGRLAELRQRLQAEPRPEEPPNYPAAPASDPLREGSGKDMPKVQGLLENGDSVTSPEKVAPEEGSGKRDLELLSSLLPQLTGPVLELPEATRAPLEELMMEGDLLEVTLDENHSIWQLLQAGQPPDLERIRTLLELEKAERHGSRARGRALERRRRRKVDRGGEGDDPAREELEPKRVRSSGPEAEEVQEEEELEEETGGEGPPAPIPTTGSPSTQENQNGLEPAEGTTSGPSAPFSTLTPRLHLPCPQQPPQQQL
Sequence of Egl nine homolog 1 (Q9GZT9 whole entry, the tested form may be a part): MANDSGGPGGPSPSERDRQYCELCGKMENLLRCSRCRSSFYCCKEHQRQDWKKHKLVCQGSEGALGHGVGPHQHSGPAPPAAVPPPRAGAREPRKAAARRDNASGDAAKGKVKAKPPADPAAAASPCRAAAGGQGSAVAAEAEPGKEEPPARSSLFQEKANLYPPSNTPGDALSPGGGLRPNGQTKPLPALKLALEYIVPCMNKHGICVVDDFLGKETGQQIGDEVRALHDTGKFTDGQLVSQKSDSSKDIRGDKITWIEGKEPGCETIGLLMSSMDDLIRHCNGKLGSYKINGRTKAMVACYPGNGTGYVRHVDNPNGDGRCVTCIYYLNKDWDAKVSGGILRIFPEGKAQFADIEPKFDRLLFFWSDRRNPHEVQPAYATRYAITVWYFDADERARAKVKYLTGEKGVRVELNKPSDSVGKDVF
Sequence of Lysine-specific demethylase 6B (O15054 whole entry): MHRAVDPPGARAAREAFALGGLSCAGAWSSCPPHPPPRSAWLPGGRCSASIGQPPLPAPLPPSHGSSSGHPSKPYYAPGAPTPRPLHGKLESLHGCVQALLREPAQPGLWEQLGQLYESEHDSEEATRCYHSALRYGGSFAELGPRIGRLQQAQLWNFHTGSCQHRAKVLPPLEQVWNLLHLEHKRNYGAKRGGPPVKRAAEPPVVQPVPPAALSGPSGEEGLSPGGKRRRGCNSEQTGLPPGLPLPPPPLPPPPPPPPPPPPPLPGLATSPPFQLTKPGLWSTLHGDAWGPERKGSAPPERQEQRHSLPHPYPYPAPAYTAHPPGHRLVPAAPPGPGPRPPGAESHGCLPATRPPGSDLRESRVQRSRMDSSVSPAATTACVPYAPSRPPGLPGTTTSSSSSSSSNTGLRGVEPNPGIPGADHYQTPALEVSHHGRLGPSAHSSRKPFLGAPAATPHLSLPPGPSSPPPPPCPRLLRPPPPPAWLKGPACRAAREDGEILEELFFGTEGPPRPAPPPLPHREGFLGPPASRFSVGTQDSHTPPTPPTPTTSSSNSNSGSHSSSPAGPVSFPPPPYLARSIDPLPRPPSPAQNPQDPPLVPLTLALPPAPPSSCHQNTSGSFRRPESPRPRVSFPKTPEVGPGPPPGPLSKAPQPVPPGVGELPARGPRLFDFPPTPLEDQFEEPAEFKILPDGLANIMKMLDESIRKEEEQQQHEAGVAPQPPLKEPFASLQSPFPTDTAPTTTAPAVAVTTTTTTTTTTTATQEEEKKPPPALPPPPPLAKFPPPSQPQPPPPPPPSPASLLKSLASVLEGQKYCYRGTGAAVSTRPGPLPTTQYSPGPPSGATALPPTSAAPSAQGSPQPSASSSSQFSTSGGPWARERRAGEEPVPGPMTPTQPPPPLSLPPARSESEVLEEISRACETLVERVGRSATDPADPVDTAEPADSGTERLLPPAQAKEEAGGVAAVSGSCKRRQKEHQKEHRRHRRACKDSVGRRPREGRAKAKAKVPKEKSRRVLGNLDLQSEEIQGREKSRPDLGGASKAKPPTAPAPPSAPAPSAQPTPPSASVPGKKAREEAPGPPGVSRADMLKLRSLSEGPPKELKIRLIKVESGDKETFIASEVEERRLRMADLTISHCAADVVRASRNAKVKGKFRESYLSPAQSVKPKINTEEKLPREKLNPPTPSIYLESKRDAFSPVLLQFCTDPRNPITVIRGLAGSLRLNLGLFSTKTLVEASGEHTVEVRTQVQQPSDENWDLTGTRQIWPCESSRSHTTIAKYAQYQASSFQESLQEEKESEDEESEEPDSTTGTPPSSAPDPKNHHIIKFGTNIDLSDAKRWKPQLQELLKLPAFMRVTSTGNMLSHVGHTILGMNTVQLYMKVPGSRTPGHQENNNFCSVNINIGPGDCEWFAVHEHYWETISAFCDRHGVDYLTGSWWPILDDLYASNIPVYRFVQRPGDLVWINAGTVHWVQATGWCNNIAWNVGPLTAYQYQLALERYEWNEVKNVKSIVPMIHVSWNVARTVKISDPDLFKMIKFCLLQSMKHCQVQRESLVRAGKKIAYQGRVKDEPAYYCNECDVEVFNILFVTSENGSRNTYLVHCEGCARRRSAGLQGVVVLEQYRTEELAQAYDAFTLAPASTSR

By pIC50 is commonly meant the negative decadic logarithm of the IC50, by convention in mol/L. As to `CCN(CCN(C)C)C(=O)CNCc1cc(C(=O)O)ccn1`, the pIC50 in test [1] was 6.00.
What is called pEC50 is the EC50 on a negative log10 scale, so that one unit is a factor of ten. With `CCCCCCCCOC(=O)c1ccc(O)c2ncccc12`, the negative-log IC50 (pIC50) in test [2], in test [3] and in test [4] was under 4.00 each time. Further, in test [5], the pEC50 was 5.42.
Take `Cc1ccsc1C(NC(=O)c1ccccc1)c1cc(Cl)c2cccnc2c1O` (racemic): the values for the negative logarithm of the IC50 (pIC50) in test [6], in test [7] and in test [8] were 3.75, 3.97 and under 4.00, respectively. Also, the pEC50 is 5.05 in [9] and 4.92 in test [10].
